In patent publication US6656947B2, “Antidepressant azaheterocyclylmethyl derivatives of 2,3-dihydro-1,4-dioxino[2,3-f]quinazoline” (Wyeth, priority 2001, dated 2003):

Tests used:
serotonin transporter = target: T1, serotonin transporter (Rattus norvegicus, UniProt P31652); experiment: 3H-paroxetine displacement, serotonin transporter affinity; type: binding
T1 construct: displace ^3H-paroxetine from male rat frontal cortical membranes; from tissue; host or cells: male rat frontal cortex membranes
T1 sequence (P31652 whole entry): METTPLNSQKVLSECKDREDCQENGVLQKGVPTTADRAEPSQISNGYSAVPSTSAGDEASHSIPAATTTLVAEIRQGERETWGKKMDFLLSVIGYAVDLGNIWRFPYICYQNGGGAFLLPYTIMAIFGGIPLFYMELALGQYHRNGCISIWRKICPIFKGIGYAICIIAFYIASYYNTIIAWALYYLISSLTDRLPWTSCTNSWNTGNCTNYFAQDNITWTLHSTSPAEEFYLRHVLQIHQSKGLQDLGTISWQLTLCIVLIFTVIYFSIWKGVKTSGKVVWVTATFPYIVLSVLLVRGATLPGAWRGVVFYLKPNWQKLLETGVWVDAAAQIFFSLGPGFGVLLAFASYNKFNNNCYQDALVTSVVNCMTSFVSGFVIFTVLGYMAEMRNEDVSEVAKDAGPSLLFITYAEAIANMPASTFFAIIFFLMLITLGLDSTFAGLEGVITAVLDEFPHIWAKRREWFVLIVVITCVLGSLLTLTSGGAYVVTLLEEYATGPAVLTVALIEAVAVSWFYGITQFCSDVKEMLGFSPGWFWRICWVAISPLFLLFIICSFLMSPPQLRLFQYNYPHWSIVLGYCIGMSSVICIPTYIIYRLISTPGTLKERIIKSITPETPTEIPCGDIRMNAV

human 5-HT1A receptors = target: T2, human 5-HT1A receptors (Homo sapiens, UniProt P08908); experiment: [3H] 8-OHDPAT displacement, 5-HT1A receptor affinity; type: binding
T2 construct: expressed in transfected cells; host or cells: CHO cells
T2 sequence (P08908 1-422): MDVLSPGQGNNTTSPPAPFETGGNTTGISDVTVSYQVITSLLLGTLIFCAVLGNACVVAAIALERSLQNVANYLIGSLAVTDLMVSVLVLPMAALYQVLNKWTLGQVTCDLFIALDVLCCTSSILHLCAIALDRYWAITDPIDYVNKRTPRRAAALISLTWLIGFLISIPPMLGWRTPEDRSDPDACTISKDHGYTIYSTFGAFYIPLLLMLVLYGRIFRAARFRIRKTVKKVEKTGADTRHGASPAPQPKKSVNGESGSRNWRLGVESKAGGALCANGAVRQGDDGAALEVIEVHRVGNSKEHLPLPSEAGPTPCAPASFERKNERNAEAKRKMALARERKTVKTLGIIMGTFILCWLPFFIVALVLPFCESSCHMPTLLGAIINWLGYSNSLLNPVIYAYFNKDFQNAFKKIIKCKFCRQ
Description: High affinity for the serotonin 5-HT1A receptor was established by testing the claimed compound's ability to displace [^3H] 8-OHDPAT (dipropylamino-tetralin) from the 5-HT1A serotonin receptor following a modification of the procedure of Hall et al., J. Neurochem. 44, 1685 (1985) which utilizes CHO cells stably transfected with human 5-HT1A receptors.

[1] = target: T3, cloned human 5-HT1A receptors (Homo sapiens, UniProt P08908); experiment: 35S-GTPγS binding assay, 5-HT1A antagonist activity; type: biochemical; details: reversal of the effects of standard agonist 8-OHDPAT on 35S-GTPγS binding; for IC50: membranes with cloned human 5-HT1A receptors, read-out: 5-HT1A Function IC50; for 5-HT1A Function Imax (maximum inhibitory effect): value in parentheses
T3 construct: expressed in transfected cells
T3 sequence (P08908 1-422): T2 sequence (P08908 1-422)
Method: Antagonist activity at 5-HT1A receptors was established by using a ^35S-GTPγS binding assay similar to that used by Lazareno and Birdsall (Br. J. Pharmacol. 109: 1120, 1993), in which the test compound's ability to affect the binding of ^35S-GTPγS to membranes containing cloned human 5-HT1A receptors was determined. Agonists produce an increase in binding whereas antagonists produce no increase but rather reverse the effects of the standard agonist 8-OHDPAT. The test compound's maximum inhibitory effect is represented as the Imax, while its potency is defined by the IC50.

SMILES	melting point	Ki (serotonin transporter)	Ki (human 5-HT1A receptors)	IC50 [1]	5-HT1A Function Imax (maximum inhibitory effect) [1]
Fc1ccc2[nH]cc(C3=CCN(CC4COc5ccc6ncncc6c5O4)CC3)c2c1 (stereo not drawn) (hydrate or solvate) [Example 1, 2-[(4-(5-Fluoro-1H-indol-3-yl)-3,6-dihydropyridin-1(2H)-yl)methyl]-2,3-dihydro[1,4]dioxino[2,3-f]quinazoline]	233 to 235 °C				
Fc1ccc2[nH]cc(C3=CCN(CC4COc5ccc6ncncc6c5O4)CC3)c2c1 (stereo not drawn) [Example 1, 2-[(4-(5-Fluoro-1H-indol-3-yl)-3,6-dihydropyridin-1(2H)-yl)methyl]-2,3-dihydro[1,4]dioxino[2,3-f]quinazoline]		2.24 nM	51.5 nM	499 nM	(94.0)
Cc1ncc2c3c(ccc2n1)OCC(CN1CC=C(c2c[nH]c4ccccc24)CC1)O3 (stereo not drawn) [Example 4, 2-[(4-(1H-Indol-3-yl)-3,6-dihydropyridin-1(2H)-yl)methyl]-8-methyl-2,3-dihydro[1,4]dioxino[2,3-f]quinazoline]		2.26 nM	2.4 nM	116 nM	(100)
CCc1ncc2c3c(ccc2n1)OCC(CN1CC=C(c2c[nH]c4ccccc24)CC1)O3 (stereo not drawn) [Example 5, 2-[(4-(1H-Indol-3-yl)-3,6-dihydropyridin-1(2H)-yl)methyl]-8-ethyl-2,3-dihydro[1,4]dioxino[2,3-f]quinazoline]	203 to 211 °C	4.25 nM	8.27 nM	209 nM	(100)
C1=C(c2c[nH]c3ccccc23)CCN(CC2COc3ccc4ncncc4c3O2)C1 (stereo not drawn) [Example 2, 2-[(4-(1H-Indol-3-yl)-3,6-dihydropyridin-1(2H)-yl)methyl]-2,3-dihydro[1,4]dioxino[2,3-f]quinazoline]		2.87 nM	15 nM	379 nM	(100)
Cc1nc2ccc3c(c2c[n+]1[O-])OC(CN1CC=C(c2c[nH]c4ccccc24)CC1)CO3 (stereo not drawn) [Example 3, 2-[(4-(1H-Indol-3-yl)-3,6-dihydropyridin-1(2H)-yl)methyl]-8-methyl-2,3-dihydro[1,4]dioxino[2,3-f]quinazoline 9-oxide]		4.64 nM	25.6 nM	440 nM	(94.0)
Cc1ncc2c3c(ccc2n1)OCC(CN1CC=C(c2c[nH]c4ccccc24)CC1)O3 (stereo not drawn) (hydrate or solvate) [Example 4, 2-[(4-(1H-Indol-3-yl)-3,6-dihydropyridin-1(2H)-yl)methyl]-8-methyl-2,3-dihydro[1,4]dioxino[2,3-f]quinazoline]	198 to 202 °C				
C1=C(c2c[nH]c3ccccc23)CCN(CC2COc3ccc4ncncc4c3O2)C1 (stereo not drawn) (hydrate or solvate) [Example 2, 2-[(4-(1H-Indol-3-yl)-3,6-dihydropyridin-1(2H)-yl)methyl]-2,3-dihydro[1,4]dioxino[2,3-f]quinazoline]	204 to 207 °C				
